{"source": "BindingDB's records for doi:10.1016/S0960-894X(01)80506-0", "about": "(n/a, 1994)", "key": {"Beta-lactamase [1]": {"biological_target": "Beta-lactamase (Pseudomonas aeruginosa (strain ATCC 15692 / DSM 22644 / CIP 104116 / JCM 14847 / LMG 12228 / 1C / PRS 101 / PAO1), UniProt P24735)", "sequence (P24735 whole entry)": "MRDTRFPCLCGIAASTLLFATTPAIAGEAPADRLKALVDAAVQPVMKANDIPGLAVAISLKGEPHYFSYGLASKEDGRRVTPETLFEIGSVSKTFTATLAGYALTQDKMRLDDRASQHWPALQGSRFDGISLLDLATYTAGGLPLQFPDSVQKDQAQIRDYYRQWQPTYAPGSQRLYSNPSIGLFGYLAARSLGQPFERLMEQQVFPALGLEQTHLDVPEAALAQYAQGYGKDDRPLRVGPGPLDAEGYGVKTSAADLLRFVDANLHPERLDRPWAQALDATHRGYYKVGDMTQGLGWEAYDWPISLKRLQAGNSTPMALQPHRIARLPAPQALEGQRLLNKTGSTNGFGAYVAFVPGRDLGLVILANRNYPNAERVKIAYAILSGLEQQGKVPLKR", "assay": "Concentration required for its inhibitory activity against Pseudomonas aeruginosa class C beta-lactamase"}, "Beta-lactamase TEM": {"biological_target": "Beta-lactamase TEM (Escherichia coli, UniProt P62593)", "sequence (P62593 whole entry)": "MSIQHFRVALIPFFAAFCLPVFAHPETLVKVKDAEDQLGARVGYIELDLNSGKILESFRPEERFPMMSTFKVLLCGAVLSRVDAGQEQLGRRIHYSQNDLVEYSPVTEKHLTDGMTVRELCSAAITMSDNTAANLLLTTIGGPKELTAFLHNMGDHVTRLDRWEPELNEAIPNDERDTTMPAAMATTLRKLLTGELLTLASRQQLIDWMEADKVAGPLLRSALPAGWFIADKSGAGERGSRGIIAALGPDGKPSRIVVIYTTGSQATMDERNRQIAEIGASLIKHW", "assay": "Concentration required for its inhibitory activity against Escherichia coli JT4(TEM1) class A beta-lactamase"}, "Beta-lactamase [2]": {"biological_target": "Beta-lactamase (Enterobacter cloacae, UniProt P05364)", "sequence (P05364 whole entry)": "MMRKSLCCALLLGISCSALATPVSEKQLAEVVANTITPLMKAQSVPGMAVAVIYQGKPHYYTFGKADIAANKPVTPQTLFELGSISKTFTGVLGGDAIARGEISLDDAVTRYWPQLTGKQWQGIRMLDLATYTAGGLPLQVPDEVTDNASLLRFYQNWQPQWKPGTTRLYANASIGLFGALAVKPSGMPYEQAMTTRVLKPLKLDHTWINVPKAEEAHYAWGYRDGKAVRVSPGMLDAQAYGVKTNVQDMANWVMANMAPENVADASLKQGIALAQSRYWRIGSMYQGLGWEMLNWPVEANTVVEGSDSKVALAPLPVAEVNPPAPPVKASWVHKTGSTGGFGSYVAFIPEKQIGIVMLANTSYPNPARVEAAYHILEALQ", "assay": "Concentration required for its inhibitory activity against Enterobacter cloacae P99 class C beta-lactamase"}, "Beta-lactamase [3]": {"biological_target": "T1, Beta-lactamase (Escherichia coli, UniProt Q2V0Y6)", "T1 sequence (Q2V0Y6 whole entry)": "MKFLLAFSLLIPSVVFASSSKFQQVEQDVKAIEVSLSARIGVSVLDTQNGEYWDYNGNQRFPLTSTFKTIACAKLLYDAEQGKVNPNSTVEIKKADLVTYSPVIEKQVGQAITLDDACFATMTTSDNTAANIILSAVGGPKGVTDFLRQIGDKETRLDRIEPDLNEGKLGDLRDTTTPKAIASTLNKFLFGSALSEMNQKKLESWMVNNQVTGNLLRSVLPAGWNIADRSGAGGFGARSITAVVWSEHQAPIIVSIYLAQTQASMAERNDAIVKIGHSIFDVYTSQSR", "assay": "Concentration required for its inhibitory activity against Escherichia coli K12(PSE4) class A beta-lactamase"}, "Beta-lactamase OXA-1": {"biological_target": "Beta-lactamase OXA-1 (Escherichia coli, UniProt P13661)", "sequence (P13661 whole entry)": "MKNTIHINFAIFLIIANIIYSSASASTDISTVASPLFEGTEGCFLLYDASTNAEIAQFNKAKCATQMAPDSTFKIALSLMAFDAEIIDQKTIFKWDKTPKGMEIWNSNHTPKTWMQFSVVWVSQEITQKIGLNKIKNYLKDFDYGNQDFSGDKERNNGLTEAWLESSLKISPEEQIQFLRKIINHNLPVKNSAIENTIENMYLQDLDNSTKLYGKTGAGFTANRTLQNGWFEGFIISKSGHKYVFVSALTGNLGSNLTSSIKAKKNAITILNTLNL", "assay": "Concentration required for its inhibitory activity against Escherichia coli K12(OXA1) class D beta-lactamase"}, "Beta-lactamase [4]": {"biological_target": "T2, Beta-lactamase (Proteus mirabilis, UniProt P30897)", "T2 sequence (P30897 whole entry)": "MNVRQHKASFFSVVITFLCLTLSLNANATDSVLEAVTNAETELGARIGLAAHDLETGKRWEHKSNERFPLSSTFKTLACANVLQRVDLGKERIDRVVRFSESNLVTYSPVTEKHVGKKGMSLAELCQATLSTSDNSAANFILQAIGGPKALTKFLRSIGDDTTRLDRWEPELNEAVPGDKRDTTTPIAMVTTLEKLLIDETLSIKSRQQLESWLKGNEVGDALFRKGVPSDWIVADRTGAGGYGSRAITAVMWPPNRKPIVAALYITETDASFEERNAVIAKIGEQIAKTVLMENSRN", "assay": "Concentration required for its inhibitory activity against Proteus mirabilis C889 class A beta-lactamase"}}, "data": [{"smiles": "CC(C)CCCCCCCCCCCCCc1cccc(O)c1C(=O)O", "values": [{"measurement": "IC50", "setting": "Beta-lactamase [1]", "value": 44.1, "unit": "µM"}, {"measurement": "IC50", "setting": "Beta-lactamase TEM", "value": 26.7, "unit": "µM"}, {"measurement": "IC50", "setting": "Beta-lactamase [2]", "value": 24.8, "unit": "µM"}]}, {"smiles": "CC/C=C\\C/C=C\\C/C=C\\CCCCCCCc1cccc(O)c1C(=O)O", "values": [{"measurement": "IC50", "setting": "Beta-lactamase TEM", "value": 13.4, "unit": "µM"}, {"measurement": "IC50", "setting": "Beta-lactamase [2]", "value": 45.8, "unit": "µM"}, {"measurement": "IC50", "setting": "Beta-lactamase [3]", "value": 26.9, "unit": "µM"}]}, {"smiles": "CCC(C)CCCCCCCCCCCCc1cccc(O)c1C(=O)O", "note": "(centres undefined)", "values": [{"measurement": "IC50", "setting": "Beta-lactamase [1]", "value": 99.2, "unit": "µM"}, {"measurement": "IC50", "setting": "Beta-lactamase TEM", "value": 27.5, "unit": "µM"}, {"measurement": "IC50", "setting": "Beta-lactamase [2]", "value": 85.5, "unit": "µM"}]}, {"smiles": "CCCCCCCCCCc1ccccc1C(=O)O", "values": [{"measurement": "IC50", "setting": "Beta-lactamase TEM", "value": 68.6, "unit": "µM"}]}, {"smiles": "CCCCCCCCCCCCCCCc1cccc(OC)c1C(=O)O", "values": [{"measurement": "IC50", "setting": "Beta-lactamase [1]", "value": 30.3, "unit": "µM"}, {"measurement": "IC50", "setting": "Beta-lactamase OXA-1", "value": "> 91", "unit": "µM"}, {"measurement": "IC50", "setting": "Beta-lactamase [4]", "value": 60.6, "unit": "µM"}, {"measurement": "IC50", "setting": "Beta-lactamase TEM", "value": 2.2, "unit": "µM"}, {"measurement": "IC50", "setting": "Beta-lactamase [2]", "value": 6.89, "unit": "µM"}, {"measurement": "IC50", "setting": "Beta-lactamase [3]", "value": 1.65, "unit": "µM"}]}, {"smiles": "CCCCCCCCCCCCCCCc1cccc(O)c1O", "values": [{"measurement": "IC50", "setting": "Beta-lactamase [2]", "value": 90.4, "unit": "µM"}]}, {"smiles": "CCCCCCCCCCc1cccc(O)c1O", "values": [{"measurement": "IC50", "setting": "Beta-lactamase [2]", "value": 83.8, "unit": "µM"}]}, {"smiles": "CCCCCCCCCCc1cccc(O)c1", "values": [{"measurement": "IC50", "setting": "Beta-lactamase TEM", "value": 8.1, "unit": "µM"}, {"measurement": "IC50", "setting": "Beta-lactamase [2]", "value": 19.1, "unit": "µM"}, {"measurement": "IC50", "setting": "Beta-lactamase [3]", "value": 17.4, "unit": "µM"}]}, {"smiles": "CCCCCCCCCCCCCCCCCc1cccc(O)c1C(=O)O", "values": [{"measurement": "IC50", "setting": "Beta-lactamase [1]", "value": 24.1, "unit": "µM"}, {"measurement": "IC50", "setting": "Beta-lactamase OXA-1", "value": 77, "unit": "µM"}, {"measurement": "IC50", "setting": "Beta-lactamase [4]", "value": 22, "unit": "µM"}, {"measurement": "IC50", "setting": "Beta-lactamase TEM", "value": 5.04, "unit": "µM"}, {"measurement": "IC50", "setting": "Beta-lactamase [2]", "value": 2.65, "unit": "µM"}, {"measurement": "IC50", "setting": "Beta-lactamase [3]", "value": 1.85, "unit": "µM"}]}, {"smiles": "CCCCCCCCc1cccc(O)c1C(=O)O", "values": [{"measurement": "IC50", "setting": "Beta-lactamase [4]", "value": 15.5, "unit": "µM"}, {"measurement": "IC50", "setting": "Beta-lactamase [3]", "value": 63.9, "unit": "µM"}]}, {"smiles": "CCCCCCCCCCc1cccc(O)c1C(=O)O", "values": [{"measurement": "IC50", "setting": "Beta-lactamase TEM", "value": 43.1, "unit": "µM"}]}, {"smiles": "CCCCCCCCCCCCCCCc1cccc(O)c1", "note": "[3-pentadecylphenol]", "values": [{"measurement": "IC50", "setting": "Beta-lactamase [2]", "value": 23.6, "unit": "µM"}, {"measurement": "IC50", "setting": "Beta-lactamase [3]", "value": 65.6, "unit": "µM"}]}, {"smiles": "C=CC/C=C\\C/C=C\\CCCCCCCc1cccc(O)c1C(=O)O", "note": "[6-[8(Z),11(Z),14-pentadecatrienyl]salicylic acid]", "values": [{"measurement": "IC50", "setting": "Beta-lactamase [1]", "value": 21, "unit": "µM"}, {"measurement": "IC50", "setting": "Beta-lactamase OXA-1", "value": 72.9, "unit": "µM"}, {"measurement": "IC50", "setting": "Beta-lactamase [4]", "value": 90.5, "unit": "µM"}, {"measurement": "IC50", "setting": "Beta-lactamase TEM", "value": 2.33, "unit": "µM"}, {"measurement": "IC50", "setting": "Beta-lactamase [2]", "value": 4.08, "unit": "µM"}, {"measurement": "IC50", "setting": "Beta-lactamase [3]", "value": 3.21, "unit": "µM"}]}, {"smiles": "O=C(O)[C@H]1/C(=C/CO)O[C@@H]2CC(=O)N21", "note": "[antibiotic MM 14151]", "values": [{"measurement": "IC50", "setting": "Beta-lactamase OXA-1", "value": 1.75, "unit": "µM"}]}]}
